In one test the test system is GP2D. Kind of test: Growth inhibition, CyQUANT Direct Cell Proliferation Assay, GP2D. The test is classed as cell-based. The note with it: GP2D cells, 120 to 168 hours. As for the experimental part: (§1) SKCO1, LS180, and LS174T cell lines were purchased from ATCC. CW2 cell line was purchased from Riken. GP2D cell line was purchased from Sigma/ECACC. All cell lines were cultured in manufacturer's recommended media at 37° C., 5% CO2. Briefly, cells were suspended in 200 μL of media and seeded at 300 to 1,800 cells per well in tissue culture treated 96-well plates with black walls and clear bottom. Plates were incubated overnight and initial (TO) read was performed the following day using CyQUANT Direct Cell Proliferation Assay Kit (Thermo Fisher Scientific) according to manufacturer's protocol. All compounds were solubilized in DMSO and prepared at 3-fold serial dilution, using 9 points starting at 30 μM as highest concentration, administered to cells and incubated for 120 to 168 hours, at which point CyQUANT assay measurement was performed using Acumen Cellista instrument (Ex/Em 480/520 nm). Media-only wells were used as blank, and 0.3% DMSO was used as DMSO-treated cell control. Growth inhibition (percent response) was calculated using the following formula in Excel: “=if ([Compound treated Day N]>[Untreated Day 0, AVG], ([Compound treated Day N]− [Untreated Day 0, AVG])/([Untreated Day N]−[Untreated Day 0, AVG])*100, ([Compound Treated Day N]−[Untreated Day 0, AVG])/([Untreated Day 0, AVG])*100)”. GI50 is the response corresponding to the 50% of untreated control.
(§2) GI50 data are reported in Tables 4a, 4b, 4c, 4d, and 4e for compounds in Table 1. In Tables 4a, 4b, 4c, 4d, and 4e below, According to the code, A represents a GI50 value of ≤0.1 μM, B represents a GI50 value >0.1 μM and ≤1 μM, C represents an GI50 value >1 μM.

The target of a further test is CRBN/DDB1 (Homo sapiens, UniProt Q96SW2). The experiment in a line: HTRF binding assay (displacement of Cy5-thalidomide probe from CRBN/DDB1). Conditions: CRBN/DDB1 2.5 nM, Cy5-Thalidomide 100 nM, 30 min; geometric mean; read-out: HTRF_Thali_Disp_DR_geo_IC50. The gist of the method: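 HTRF displacement of Cy5-thalidomide probe (100 nM) from His-tagged CRBN/DDB1 (2.5 nM) with anti-His terbium cryptate, in HEPES/NaCl/TCEP/EDTA/Tween20 buffer; 10-point 1:3 series, 30 min at ambient temperature. 665/620 nm ratio fitted 4-parameter logistic for IC50; Ki via Cheng-Prusoff.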
Chain of CRBN/DDB1 (Q96SW2 whole entry): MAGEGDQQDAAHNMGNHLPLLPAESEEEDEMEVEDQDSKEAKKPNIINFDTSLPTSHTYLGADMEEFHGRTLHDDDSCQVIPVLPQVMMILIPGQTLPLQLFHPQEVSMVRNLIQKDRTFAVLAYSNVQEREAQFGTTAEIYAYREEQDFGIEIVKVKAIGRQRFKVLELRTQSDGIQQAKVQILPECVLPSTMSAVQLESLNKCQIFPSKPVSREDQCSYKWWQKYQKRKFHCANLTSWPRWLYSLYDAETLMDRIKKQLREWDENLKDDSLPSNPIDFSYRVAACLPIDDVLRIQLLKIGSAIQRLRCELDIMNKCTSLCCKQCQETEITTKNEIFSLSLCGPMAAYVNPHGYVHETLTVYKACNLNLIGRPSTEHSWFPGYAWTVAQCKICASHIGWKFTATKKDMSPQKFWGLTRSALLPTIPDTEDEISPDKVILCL
Chain of CRBN/DDB1 (Q16531 whole entry partner): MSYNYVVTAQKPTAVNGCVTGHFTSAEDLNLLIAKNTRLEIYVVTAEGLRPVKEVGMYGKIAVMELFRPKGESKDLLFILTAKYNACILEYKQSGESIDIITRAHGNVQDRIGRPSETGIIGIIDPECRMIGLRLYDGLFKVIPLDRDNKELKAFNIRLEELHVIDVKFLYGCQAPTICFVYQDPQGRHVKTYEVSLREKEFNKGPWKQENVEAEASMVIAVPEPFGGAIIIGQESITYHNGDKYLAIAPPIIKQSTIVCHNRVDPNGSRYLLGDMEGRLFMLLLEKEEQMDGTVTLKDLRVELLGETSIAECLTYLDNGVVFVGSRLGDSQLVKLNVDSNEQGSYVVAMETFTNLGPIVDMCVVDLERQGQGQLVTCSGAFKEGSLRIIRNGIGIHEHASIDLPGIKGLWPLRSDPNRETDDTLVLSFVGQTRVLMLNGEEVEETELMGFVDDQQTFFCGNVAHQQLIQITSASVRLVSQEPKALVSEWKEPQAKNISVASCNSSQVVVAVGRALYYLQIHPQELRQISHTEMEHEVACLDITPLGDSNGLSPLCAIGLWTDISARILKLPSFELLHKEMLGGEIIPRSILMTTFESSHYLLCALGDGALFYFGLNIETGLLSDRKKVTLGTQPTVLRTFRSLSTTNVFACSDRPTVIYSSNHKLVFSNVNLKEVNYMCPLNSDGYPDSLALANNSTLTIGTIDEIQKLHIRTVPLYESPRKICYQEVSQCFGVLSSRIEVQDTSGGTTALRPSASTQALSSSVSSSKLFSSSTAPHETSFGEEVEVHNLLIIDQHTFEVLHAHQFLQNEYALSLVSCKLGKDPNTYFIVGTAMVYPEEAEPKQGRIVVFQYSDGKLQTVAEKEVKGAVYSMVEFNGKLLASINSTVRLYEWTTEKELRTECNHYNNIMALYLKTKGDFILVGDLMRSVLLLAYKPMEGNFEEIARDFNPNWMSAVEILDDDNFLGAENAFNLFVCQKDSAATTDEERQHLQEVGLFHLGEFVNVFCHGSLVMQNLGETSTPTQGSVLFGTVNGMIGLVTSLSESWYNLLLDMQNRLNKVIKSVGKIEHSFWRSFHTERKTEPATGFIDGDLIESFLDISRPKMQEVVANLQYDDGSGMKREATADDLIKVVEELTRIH

The subject of the next test is SKCO1. Kind of test: Growth inhibition, CyQUANT Direct Cell Proliferation Assay, SKCO1. The test is classed as cell-based. The note with it: Homo sapiens, SK-CO-1; SKCO1 cells, 120 to 168 hours. How it is done: as §1, §2
A further test has as its system CW2. Kind of test: Growth inhibition, CyQUANT Direct Cell Proliferation Assay, CW2. The test is classed as cell-based. The note with it: Homo sapiens, CW-2; CW2 cells, 120 to 168 hours. How it is done: as §1, §2
For another test, the system named is LS174T. Kind of test: Growth inhibition, CyQUANT Direct Cell Proliferation Assay, LS174T. The class given is cell-based. The note with it: Homo sapiens; LS174T cells, 120 to 168 hours. How it is done:
as §1, §2

SMILES strings stand for the structures. pIC50: −log10 of the molar value. Bounds are passed on as bounds.

A word on the GI50: it is the concentration giving 50% growth inhibition. A higher GI50 goes with less potent growth inhibition.

Consider `O=C1CCC(N2Cc3cc(N4CCN(c5ccccc5)C4=O)ccc3C2=O)C(=O)N1` (stereo not drawn) [Compound 101, 3-(1-oxo-5-(2-oxo-3-phenylimidazolidin-1-yl)isoindolin-2-yl)piperidine-2,6-dione], for which the concentration for 50% growth inhibition (GI50) is > 1 µM in the test with GP2D, 0.1 to 1 µM with SKCO1, 0.1 to 1 µM in the test on CW2 and > 1 µM in the test with LS174T. The pIC50 at CRBN/DDB1 was 6.00 to 7.00.
With `C[C@@H]1CN(c2ccc3c(c2)CN(C2CCC(=O)NC2=O)C3=O)C(=O)N1c1ccccc1` (stereo partly drawn) [Compound 107, 3-(5-((R)-4-methyl-2-oxo-3-phenylimidazolidin-1-yl)-1-oxoisoindolin-2-yl)piperidine-2,6-dione], the GI50 is 0.1 to 1 µM in the test on GP2D, 0.1 to 1 µM with SKCO1, ≤ 0.1 µM in the test with CW2 and > 1 µM in the test with LS174T. Moreover, the pIC50 on CRBN/DDB1 was 6.00 to 7.00.
`C[C@@H]1CN(c2ccc3c(c2)CN(C2CCC(=O)NC2=O)C3=O)C(=O)N1c1ccc(C2CC2)cc1` (stereo partly drawn) [Compound 125, 3-(5-((R)-3-(4-cyclopropylphenyl)-4-methyl-2-oxoimidazolidin-1-yl)-1-oxoisoindolin-2-yl)piperidine-2,6-dione]: the GI50 is 0.1 to 1 µM in the test with GP2D, ≤ 0.1 µM with SKCO1, ≤ 0.1 µM in the test with CW2 and ≤ 0.1 µM with LS174T. In addition, at CRBN/DDB1, the pIC50 was 6.00 to 7.00.

Values taken from patent publication US20250115581A1, “SUBSTITUTED PIPERIDINES AS CK1A DEGRADERS” (Monte Rosa Therapeutics, Inc., priority 2022, published 2025).
